Legend:
[1] = human, in vivo
[2] = system: SARS-CoV-2 (hCoV-19/Singapore/10/2020); experiment: Dose-dependent inhibition assay with plaque assay titration in Vero E6 cells; type: cell-based
in vitro [3] = type: cell-based; details: African green monkey
Experimental: Vero E6 cells were treated with the above compounds ata range of concentrations (0.0001, 0.001, 0.01, 1,10, 30, 50, and 100 μM) and incubated for 4 days. After incubation, the media was removed from the plates and washed once with PBS before addition of alamarBlue Cell Viability Reagent (Thermo Fisher Scientific) diluted 1:10 in media with 2% FCS. Fluorescence was detected after 2.5 h incubation at an excitation wavelength of 570 nm and an emission wavelength of 600 nm on an Infinite 200 Pro multiplate reader (Tecan). Data obtained from compound-treated cells and vehicle-treated cells were normalised against those obtained from untreated cells.

Zika virus = Zika virus assay in Huh7 cells (viral titer); type: cell-based
[4] = system: Dengue virus (serotypes 1, 2, 3 or 4); experiment: Dengue virus assay in Huh7 cells (viral titer); type: cell-based
A549 cells = experiment: in vitro; type: cell-based; details: human, 48 h
Experimental: (§1) 12k cells (A549) per well in a 96-well plate. The compounds are added on the next day. 48 hrs treatment. 3-fold serial dilution for ASLAN 003 starting from 10 μM.

in vitro [5] = type: cell-based; details: human
Experimental: as §1

SARS-CoV-2-Nluc viruses = experiment: microbe, parasite or virus in culture; type: cell-based
CHIKV = experiment: Chikungunya virus assay in Huh7 cells (viral titer); type: cell-based
clinical = details: human, in vivo
[6] = Severe acute respiratory syndrome coronavirus 2, Vero C1008, 96 h

For `COc1cccc(-c2cc(F)c(Nc3ncccc3C(=O)O)c(F)c2)c1` [ASLAN003, 2-(3,5-difluoro-3′-methoxybiphenyl-4-ylamino) nicotinic acid], the “PK profiles in Asian and Caucasian patients” value [1] was “equivalent”, the “safety and tolerability, liver enzyme rises” value [1] was “safe and well-tolerated with no evidence of significant liver enzyme rises” and the “time until full exposure is achieved” value [1] was at most 24 h. For the same molecule, the EC50 [2, 6] was 0.00142 µM, the EC90 [2, 6] was 0.00388 µM and the “inhibition of SARS-CoV-2 in Vero E6 cells (viral titre)” value ([2]; treated post virus infection, 0.0001 to 100 μM) was “Dosage dependent inhibition”. For the same molecule, the CC50 at 4 days (in vitro [3]) was 87.2 µM, the “efficacy (potency) against Zika” value (Zika virus) was “sub-micromolar potency” and the “efficacy (potency) against Dengue” value [4] was “sub-micromolar potency”. For the same molecule, the IC50 (A549 cells) was over 10 µM, the “change in A549 cell viability” value (A549 cells) was “no change in A549 cell viability” and the IC50 at 48 h (in vitro [5]) was over 10 µM. For the same molecule, the “efficacy (potency) against SARS-CoV-2” value (SARS-CoV-2-Nluc viruses) was “sub-micromolar potency”, the IC50 (SARS-CoV-2-Nluc viruses; Severe acute respiratory syndrome coronavirus 2, 48 h, read-out: SARS-COV-2 Reporter Assay (IC50, μM)) was 0.812 µM and the “efficacy (potency) against Chikugunya” value (CHIKV) was “sub-micromolar potency”. The half-life (clinical) was 18 h.

— US20230355602A1, “TREATMENT AND/OR PREVENTION OF A VIRAL INFECTION” (priority 2020, published 2023)
